Results published in PubChem BioAssay (NCI).
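All cell lines were grown in 96-well plates and treated with compound for 48 hours. TGI: concentration producing complete growth inhibition.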

Key:
Test in all cases: NCI tumour cell line growth inhibition, 48 h
[1] = tested on: HL-60(TB) leukemia
[2] = tested on: M14 melanoma
[3] = tested on: CAKI-1 renal
[4] = tested on: LOX IMVI melanoma
[5] = tested on: OVCAR-4 ovarian
[6] = tested on: MCF7 breast
[7] = tested on: HCT-116 colon
[8] = tested on: MDA-N
[9] = tested on: NCI-H460 lung
[10] = tested on: MOLT-4 leukemia
[11] = tested on: OVCAR-3 ovarian
[12] = tested on: CCRF-CEM leukemia
[13] = tested on: ACHN renal
[14] = tested on: DU-145 prostate
[15] = tested on: SK-MEL-5 melanoma
[16] = tested on: EKVX NSCLC
[17] = tested on: U251 CNS
[18] = tested on: SF-295 CNS
[19] = tested on: SF-268 CNS
[20] = tested on: A498 renal
[21] = tested on: MALME-3M melanoma
[22] = tested on: SF-539 CNS
[23] = tested on: HCC-2998 colon
[24] = tested on: RXF 393 renal
[25] = tested on: PC-3 prostate
[26] = tested on: SNB-19 CNS
[27] = tested on: SK-MEL-2 melanoma
[28] = tested on: NCI/ADR-RES ovarian
[29] = tested on: UO-31 renal
[30] = tested on: IGROV1 ovarian
[31] = tested on: COLO 205 colon
[32] = tested on: MDA-MB-435
[33] = tested on: T-47D breast
[34] = tested on: SN12C renal
[35] = tested on: NCI-H522 lung
[36] = tested on: HT29 colon
[37] = tested on: SK-MEL-28 melanoma
[38] = tested on: K-562 leukemia
[39] = tested on: SK-OV-3 ovarian
[40] = tested on: HCT-15 colon
[41] = tested on: TK-10 renal
[42] = tested on: KM12 colon
[43] = tested on: NCI-H23 lung
[44] = tested on: 786-0 renal
[45] = tested on: NCI-H226 lung
[46] = tested on: RPMI-8226 leukemia
[47] = tested on: UACC-62 melanoma
[48] = tested on: MDA-MB-231 breast
[49] = tested on: HS 578T breast
[50] = tested on: SNB-75 CNS
[51] = tested on: HOP-92 NSCLC
[52] = tested on: OVCAR-5 ovarian
[53] = tested on: A549 NSCLC
[54] = tested on: OVCAR-8 ovarian
[55] = tested on: BT-549 breast
[56] = tested on: HOP-62 NSCLC
[57] = tested on: SW-620 colon
[58] = tested on: UACC-257 melanoma

O=C(Nc1ccccc1)c1cc(S(=O)(=O)Nc2nc3ncccc3[nH]2)c(SSc2cc(Cl)c(C(=O)Nc3ccccc3)cc2S(=O)(=O)Nc2nc3ncccc3[nH]2)cc1Cl
TGI [1]: > 100 µM | TGI [2]: > 100 µM | TGI [3]: > 100 µM | TGI [4]: > 100 µM | TGI [5]: > 100 µM | TGI [6]: > 100 µM | TGI [7]: > 100 µM | TGI [8]: > 100 µM | TGI [9]: > 100 µM | TGI [10]: > 100 µM | TGI [11]: > 100 µM | TGI [12]: > 100 µM | TGI [13]: > 100 µM | TGI [14]: > 100 µM | TGI [15]: > 100 µM | TGI [16]: > 100 µM | TGI [17]: > 100 µM | TGI [18]: > 100 µM | TGI [19]: > 100 µM | TGI [20]: > 100 µM | TGI [21]: > 100 µM | TGI [22]: > 100 µM | TGI [23]: > 100 µM | TGI [24]: > 100 µM | TGI [25]: > 100 µM | TGI [26]: > 100 µM | TGI [27]: > 100 µM | TGI [28]: > 100 µM | TGI [29]: > 100 µM | TGI [30]: > 100 µM | TGI [31]: > 100 µM | TGI [32]: > 100 µM | TGI [33]: > 100 µM | TGI [34]: > 100 µM | TGI [35]: > 100 µM | TGI [36]: > 100 µM | TGI [37]: > 100 µM | TGI [38]: > 100 µM | TGI [39]: > 100 µM | TGI [40]: > 100 µM | TGI [41]: > 100 µM | TGI [42]: > 100 µM | TGI [43]: > 100 µM | TGI [44]: > 100 µM | TGI [45]: > 100 µM | TGI [46]: > 100 µM | TGI [47]: > 100 µM | TGI [48]: > 100 µM | TGI [49]: > 100 µM | TGI [50]: > 100 µM | TGI [51]: > 100 µM | TGI [52]: > 100 µM | TGI [53]: > 100 µM | TGI [54]: > 100 µM | TGI [55]: > 100 µM | TGI [56]: > 100 µM | TGI [57]: > 100 µM | TGI [58]: > 100 µM

C=CS(=O)(=O)c1c2cc(OC)ccc2nc2ccc(OC)cc12
TGI [1]: > 100 µM | TGI [2]: > 49.7 µM | TGI [3]: 14.9 µM | TGI [4]: 7.16 µM | TGI [5]: 30 µM | TGI [6]: > 25.7 µM | TGI [7]: 5.02 µM | TGI [8]: 11.3 µM | TGI [9]: > 44.3 µM | TGI [10]: > 100 µM | TGI [11]: 15.8 µM | TGI [12]: > 23.4 µM | TGI [13]: 24.5 µM | TGI [14]: 19.8 µM | TGI [15]: 27 µM | TGI [16]: 21.1 µM | TGI [17]: > 52.6 µM | TGI [18]: 32.3 µM | TGI [19]: 33.4 µM | TGI [20]: 27.7 µM | TGI [21]: 4.89 µM | TGI [22]: > 21.2 µM | TGI [23]: 24.8 µM | TGI [24]: 18.4 µM | TGI [25]: 23.3 µM | TGI [26]: 45.1 µM | TGI [27]: 51.3 µM | TGI [28]: 76.2 µM | TGI [29]: > 27.4 µM | TGI [30]: 12.5 µM | TGI [31]: > 42.3 µM | TGI [32]: 22.7 µM | TGI [33]: 35.5 µM | TGI [34]: 8.21 µM | TGI [35]: 3.74 µM | TGI [36]: 10.7 µM | TGI [37]: 45.6 µM | TGI [38]: > 23.4 µM | TGI [39]: 33.1 µM | TGI [40]: > 33.9 µM | TGI [41]: 23.5 µM | TGI [42]: 28.8 µM | TGI [43]: 28.2 µM | TGI [44]: 7.82 µM | TGI [45]: 35.1 µM | TGI [46]: 7.28 µM | TGI [47]: 31.3 µM | TGI [48]: 50.7 µM | TGI [49]: 11.9 µM | TGI [50]: 26.3 µM | TGI [51]: > 51.1 µM | TGI [52]: > 36.9 µM | TGI [53]: > 47.1 µM | TGI [54]: 15.4 µM | TGI [55]: 22.4 µM | TGI [56]: 32.8 µM | TGI [57]: > 20.7 µM | TGI [58]: 24 µM
